Experimental data published in EP3722296B1, “DIHYDRONAPHTHYRIDINES AND RELATED COMPOUNDS USEFUL AS KINASE INHIBITORS FOR THE TREATMENT OF PROLIFERATIVE DISEASES” (Deciphera Pharmaceuticals, LLC, priority 2012, dated 2013).

What was measured:
[1] = target: T1, c-KIT VVDV kinase (Homo sapiens, UniProt P10721, D816V/DEL559-560); test: cKIT-VVDV kinase Assay; assay type: biochemical; details: enzymatic assay; V559+V560 deletions and D816V mutation
T1 construct: This construct contains residues T544-V976 of cKit; GST (N); TEV cleavage site (internal); purchased deCODE Biostructures
T1 sequence (P10721 with tags, fused parts or gaps DEL559-560/D816V): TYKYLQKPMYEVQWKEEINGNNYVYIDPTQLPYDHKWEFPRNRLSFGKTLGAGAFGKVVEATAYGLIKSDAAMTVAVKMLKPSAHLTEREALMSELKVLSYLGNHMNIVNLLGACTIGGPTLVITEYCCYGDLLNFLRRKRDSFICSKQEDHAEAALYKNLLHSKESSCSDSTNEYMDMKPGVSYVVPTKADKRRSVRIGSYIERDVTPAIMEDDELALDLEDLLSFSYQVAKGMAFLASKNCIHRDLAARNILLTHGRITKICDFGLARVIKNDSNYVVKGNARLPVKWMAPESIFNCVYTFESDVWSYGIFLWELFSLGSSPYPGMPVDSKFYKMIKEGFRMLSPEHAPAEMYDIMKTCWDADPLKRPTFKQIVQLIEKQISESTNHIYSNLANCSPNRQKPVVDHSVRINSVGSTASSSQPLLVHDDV
Procedure, shortened: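 Coupled spectrophotometric format: kinase activity followed as NADH oxidation, loss of absorbance at 340 nm. Serially diluted compound mixed with the reaction mixture to start; read continuously for 5 h at 30 °C.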

[2] = target: T2, c-KIT D816V kinase (Homo sapiens, UniProt P10721, D816V); test: c-KIT D816V kinase Assay; assay type: biochemical; details: enzymatic assay, ATP 200 uM
T2 construct: residues T544-V976 with N-terminal GST fusion; purchased deCODE Biostructures
T2 sequence (P10721 544-976 D816V): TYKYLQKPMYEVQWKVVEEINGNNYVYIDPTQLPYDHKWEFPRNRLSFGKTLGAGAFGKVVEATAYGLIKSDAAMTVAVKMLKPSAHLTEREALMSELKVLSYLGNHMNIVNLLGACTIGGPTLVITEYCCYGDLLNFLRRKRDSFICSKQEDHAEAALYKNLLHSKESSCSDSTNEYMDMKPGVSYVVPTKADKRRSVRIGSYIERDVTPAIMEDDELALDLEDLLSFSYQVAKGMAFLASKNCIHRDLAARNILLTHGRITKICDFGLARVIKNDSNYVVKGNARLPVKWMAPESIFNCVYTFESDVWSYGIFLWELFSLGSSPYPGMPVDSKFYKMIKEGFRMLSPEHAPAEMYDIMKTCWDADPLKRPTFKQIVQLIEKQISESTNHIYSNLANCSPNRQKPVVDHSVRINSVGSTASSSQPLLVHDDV
Procedure, shortened: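 Coupled assay in which NADH oxidation was tracked as decreasing absorbance at 340 nm, continuously for 5 hours at 30 °C after adding serially diluted compound. Enzyme: cKit residues T544-V976 with N-terminal tag, GST fusion and TEV cleavage site.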

[3] = target: T3, Phospho-KIT (Tyr719) (Homo sapiens, UniProt P10721, DEL560-578); test: GIST T1 KIT Western Blot; assay type: cell-based; details: GIST T1 cells, 4 hours, serum-free medium; read-out: pKIT suppression by western blot analysi GIST T1
T3 construct: endogenous in cells; host or cells: GIST T1
T3 sequence (P10721 with tags, fused parts or gaps DEL560-578): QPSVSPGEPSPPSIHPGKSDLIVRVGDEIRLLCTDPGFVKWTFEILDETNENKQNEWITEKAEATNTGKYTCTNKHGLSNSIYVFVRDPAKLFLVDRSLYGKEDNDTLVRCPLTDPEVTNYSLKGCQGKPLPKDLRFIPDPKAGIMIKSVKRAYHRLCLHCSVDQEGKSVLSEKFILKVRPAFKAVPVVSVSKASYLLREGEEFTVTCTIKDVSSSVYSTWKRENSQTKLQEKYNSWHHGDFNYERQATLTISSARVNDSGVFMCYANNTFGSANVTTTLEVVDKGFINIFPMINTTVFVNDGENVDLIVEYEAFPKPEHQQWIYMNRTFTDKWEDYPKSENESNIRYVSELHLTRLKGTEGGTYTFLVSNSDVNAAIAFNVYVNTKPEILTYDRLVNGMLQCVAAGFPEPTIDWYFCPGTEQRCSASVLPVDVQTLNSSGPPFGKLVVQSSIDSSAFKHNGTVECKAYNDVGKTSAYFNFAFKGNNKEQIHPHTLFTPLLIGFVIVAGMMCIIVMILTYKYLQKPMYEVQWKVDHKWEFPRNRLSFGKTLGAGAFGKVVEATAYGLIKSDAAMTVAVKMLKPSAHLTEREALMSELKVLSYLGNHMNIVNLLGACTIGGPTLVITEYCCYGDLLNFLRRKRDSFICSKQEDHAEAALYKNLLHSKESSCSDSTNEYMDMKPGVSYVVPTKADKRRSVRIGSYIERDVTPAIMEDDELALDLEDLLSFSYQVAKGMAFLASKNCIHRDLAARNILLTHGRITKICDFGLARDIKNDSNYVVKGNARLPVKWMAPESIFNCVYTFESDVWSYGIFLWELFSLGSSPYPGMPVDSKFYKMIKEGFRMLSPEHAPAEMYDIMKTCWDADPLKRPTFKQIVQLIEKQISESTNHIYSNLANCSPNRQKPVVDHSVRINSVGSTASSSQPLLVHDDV
Method: GIST48, GIST430, and GIST882 cells were obtained from J. Fletcher (Brigham and Women's Hospital, Boston, MA). GIST T1 cells were obtained from B. Rubin (Cleveland Clinic, Cleveland, OH) and Professor Takahiro Taguchi (Kochi Medical School, Nankoku, Kochi, Japan). […] GIST430 cells were grown in Ham's F10 medium supplemented with 15% characterized fetal bovine serum (Invitrogen, Carlsbad, CA), 30 mg/L bovine pituitary extract (BD Biosciences, San Jose, CA), 0.5% Mito+ serum extender (BD Biosciences, San Jose, CA), 1 unit/mL penicillin G, 1 µg/ml streptomycin, and 0.29 mg/mL L-glutamine at 37 °C, 5%CO2, 95% humidity. GIST T1 cells were grown in DMEM medium supplemented with 10% characterized fetal bovine serum (Invitrogen, Carlsbad, CA), 1 unit/mL penicillin G, 1 µg/ml streptomycin, and 0.29 mg/mL L-glutamine at 37 °C, 5% CO2, and 95% humidity. Cells were allowed to expand until reaching 70-95% confluence at which point they were subcultured or harvested for assay use.
One hundred twenty-five thousand cells were added per well in a 24-well tissue-culture treated plate. Cells were then incubated overnight at 37°C, 5% CO2, 95% humidity. Medium was aspirated, cells were washed with PBS, and serum-free DMEM medium was added. A serial dilution of test compound was added to plates containing cells and plates were incubated for 4 hours at 37°C, 5% CO2, 95% humidity. Cells were washed with PBS, then lysed. Cell lysates were separated by SDS-PAGE and transferred to PVDF. Phospho-KIT (Tyr719) was detected using an antibody from Cell Signaling Technology (Beverly, MA), ECL Plus detection reagent (GE Healthcare, Piscataway, NJ) and a Molecular Devices Storm 840 phosphorimager in fluorescence mode. Blots were stripped and probed for total KIT using an antibody from Santa Cruz Biotech (Santa Cruz, CA). IC50 values were calculated using Prism software (Graphpad, San Diego, CA).

[4] = test system: GIST T1 cells; test: GIST T1 Cell Proliferation Assay; assay type: cell-based; details: Homo sapiens, GISTT1, 72 h, 68 hours + 4 hours resazurin
[5] = target: T4, c-KIT T670I kinase (Homo sapiens, UniProt P10721, T670I); test: c-KIT T670I kinase assay; assay type: biochemical; details: enzymatic assay
T4 construct: The construct contains residues T544-V976 of cKit; GST (N); TEV cleavage site (internal); purchased deCODE Biostructures
T4 sequence (P10721 544-976 T670I): as the sequence (P10721 544-976 D816V) above, with T127I, V273D counted along it
Procedure, shortened: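 Coupled spectrophotometric assay following NADH oxidation as absorbance decrease at 340 nm, monitored continuously for 5 h at 30 °C after adding serially diluted compound. Enzyme is a cKit construct with N-terminal tag, GST fusion and TEV site, carrying the T670I mutation.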

IC50 [1] [nM] | IC50 [2] [nM] | IC50 [3] [nM] | IC50 [5] [nM] | SMILES | IC50 [4] [nM]
< 10 | < 10 | < 10 | < 10 | CCn1c(=O)c(-c2cc(NC(=O)Nc3cccc(F)c3)c(F)cc2Cl)cc2cnc(NC)cc21 [Example 24, 1-[4-chloro-5-(1-ethyl-7-methylamino-2-oxo-1,2-dihydro-[1,6]naphthyridin-3-yl)-2-fluoro-phenyl]-3-(3-fluoro-phenyl)-urea] | < 10
< 10 | < 10 | < 10 | 10 to 100 | CCn1c(=O)c(-c2cc(NC(=O)Nc3csc4ccccc34)c(F)cc2Cl)cc2cnc(NC)cc21 [Example 32, 1-(benzo[b]thiophen-3-yl)-3-(4-chloro-5-(1-ethyl-7-(methylamino)-2-oxo-1,2-dihydro-1,6-naphthyridin-3-yl)-2-fluorophenyl)urea] | < 10
< 10 | < 10 | < 10 | 100 to 1000 | CNc1cc2c(cn1)cc(-c1cc(NC(=O)Nc3ccccc3)c(F)cc1Cl)c(=O)n2C(C)C [Example 22, 1-(4-chloro-2-fluoro-5-(1-isopropyl-7-(methylamino)-2-oxo-1,2-dihydro-1,6-naphthyridin-3-yl)phenyl)-3-phenylurea] | < 10
10 to 100 | 10 to 100 | < 10 | 10 to 100 | CCn1c(=O)c(-c2cc(NC(=O)Nc3ccccc3)c(F)cc2C)cc2cnc(NC)cc21 [Example 23, 1-(5-(1-ethyl-7-(methylamino)-2-oxo-1,2-dihydro-1,6-naphthyridin-3-yl)-2-fluoro-4-methylphenyl)-3-phenylurea] | < 10
